Here are results for 5 substances from US9833497B2, “Human originated EGF domain proteins and use of the same” (CHENGDU SOURCEBIO LIMITED-LIABILITY COMPANY, priority 2013, dated 2017).

What all share (type): cell-based
For assay [1], the system named is Serratia marcescens. In words: MIC against Gram-negative bacteria: Serratia marcescens. Particulars: 5×10^5 CFU/mL. In outline:
(§1)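 Broth microdilution, LB medium, final inoculum 5×10^5 CFU/mL from McFarland 0.5 cultures. Recombinant human EGF domain proteins tested in two-fold steps, n=3. MIC: lowest concentration, no growth.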

Assay [2] deals with Klebsiella pneumonia. Description: MIC against Gram-negative bacteria: Klebsiella pneumonia. The note with it: 5×10^5 CFU/mL. In outline:
as §1

The test system of assay [3] is Enterobacter cloacae. In words: MIC against Gram-negative bacteria: Enterobacter cloacae. Particulars: 5×10^5 CFU/mL. The method in brief: as §1
Assay [4] has as its system Moraxella catarrhalis. Description: MIC against Gram-negative bacteria: Moraxella catarrhalis. The note with it: 5×10^5 CFU/mL. The method in brief: as §1
Assay [5] deals with E. coli BL21. Description: MIC against Gram-negative bacteria: E. coli BL21. Particulars: 5×10^5 CFU/mL. In outline: as §1
For assay [6], the system named is Citrobacter diversus. In words: MIC against Gram-negative bacteria: Citrobacter diversus. Particulars: 5×10^5 CFU/mL. The method in brief: as §1
Assay [7] has as its system Proteus mirabilis. In words: MIC against Gram-negative bacteria: Proteus mirabilis. Particulars: 5×10^5 CFU/mL. The method in brief:
as §1

Assay [8] has as its system Proteus vulgaris. In words: MIC against Gram-negative bacteria: Proteus vulgaris. The note with it: 5×10^5 CFU/mL. In outline: as §1
For assay [9], the system named is Aeromonas hydrophila. Description: MIC against Gram-negative bacteria: Aeromonas hydrophila. The note with it: 5×10^5 CFU/mL. The method in brief:
as §1

The subject of assay [10] is Pseudomonas aeruginosa. Description: MIC against Gram-negative bacteria: Pseudomonas aeruginosa. The note with it: 5×10^5 CFU/mL. In outline: as §1
For assay [11], the system named is E. coli DH5α. Description: Antibacterial activity: MIC and growth curve against E. coli DH5α in 96-well plate. The note with it: minimal inhibitory concentration against E. coli DH5α; 96-well plate, 5×10^5 CFU/mL, 37° C., judged after 8 h. In outline: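 Log-phase DH5α (OD600 about 0.5, 37° C, 185 rpm in LB) was pelleted, resuspended in fresh LB and seeded at 5×10^5 CFU/mL with recombinant protein at 50, 25 and 12.5 μg/mL (two-fold series), in triplicate. Plates were shaken at 175 rpm, 37° C, and OD600 was read every 30 min. MIC was the lowest concentration with no growth.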

[12] abbreviates: E. coli BL21, 10 h cultivation at 37° C.
Where [13] appears, read: 10 h cultivation at 37° C., two-fold serial dilution.

Broadly, the MIC is the least concentration at which growth counts as inhibited. A higher MIC goes with a need for much substance.

As to “PRT157 (VADPCASNPCHHGNCSSSSSSSSDGYLCICNEGYEGPNCE; listed as Homo sapiens)”, the “MIC (μg/mL) S. marcescens” value in assay [1] (10 h cultivation at 37° C.) amounted to 12.5 µg/mL. In addition, in assay [2] (10 h cultivation at 37° C.), the “MIC (μg/mL) K. pneumonia” value turned out to be 12.5 µg/mL. Further, the “MIC (μg/mL) E. cloacae” value in assay [3] (10 h cultivation at 37° C.) stood at 25 µg/mL. In addition, the “MIC (μg/mL) M. catarrhalis” value in assay [4] (10 h cultivation at 37° C.) turned out to be 12.5 µg/mL. In assay [5] (setting [12]), the “MIC (μg/mL) E. coli BL21” value turned out to be 50 µg/mL. Besides, the “MIC (μg/mL) C. diversus” value in assay [6] (10 h cultivation at 37° C.) came to 12.5 µg/mL. Further, the “MIC (μg/mL) P. mirabilis” value in assay [7] (10 h cultivation at 37° C.) was determined as 12.5 µg/mL. In addition, in [8] (10 h cultivation at 37° C.), the “MIC (μg/mL) P. vulgaris” value was 12.5 µg/mL. Moreover, the “MIC (μg/mL) A. hydrophila” value in assay [9] (10 h cultivation at 37° C.) was determined as 12.5 µg/mL. Moreover, the “MIC (μg/mL) P. aeruginosa” value in assay [10] (10 h cultivation at 37° C.) was found to be 25 µg/mL. The same substance had an MIC in assay [11] of 12.5 µg/mL.
For “PRT838 (GLQECSAYCGSHGTCASPLGPCRCEPGFLGRACD; listed as Homo sapiens)”, in [1] (10 h cultivation at 37° C.), the “MIC (μg/mL) S. marcescens” value was 25 µg/mL. The “MIC (μg/mL) K. pneumonia” value in assay [2] (10 h cultivation at 37° C.) worked out at 12.5 µg/mL. In assay [3] (10 h cultivation at 37° C.), the “MIC (μg/mL) E. cloacae” value was 25 µg/mL. Further, the “MIC (μg/mL) M. catarrhalis” value in assay [4] (10 h cultivation at 37° C.) came to 12.5 µg/mL. For the same substance, in [5] (setting [12]), the “MIC (μg/mL) E. coli BL21” value stood at 12.5 µg/mL. Further, the “MIC (μg/mL) C. diversus” value in assay [6] (10 h cultivation at 37° C.) was determined as 25 µg/mL. Besides, the “MIC (μg/mL) P. mirabilis” value in assay [7] (10 h cultivation at 37° C.) is 25 µg/mL. The “MIC (μg/mL) P. vulgaris” value in assay [8] (10 h cultivation at 37° C.) was 12.5 µg/mL. The “MIC (μg/mL) A. hydrophila” value in assay [9] (10 h cultivation at 37° C.) came to 50 µg/mL. Besides, in assay [10] (10 h cultivation at 37° C.), the “MIC (μg/mL) P. aeruginosa” value was determined as 50 µg/mL. For the same substance, the MIC in assay [11] came to 50 µg/mL.
Turning to “PRT230 (DVDECADPRACPEHATCNNTVGNYSCFCNPGFESSSGHLSFQGLKASCE; listed as Homo sapiens)”, in [1] (10 h cultivation at 37° C.), the “MIC (μg/mL) S. marcescens” value is 50 µg/mL. Further, the “MIC (μg/mL) K. pneumonia” value in assay [2] (10 h cultivation at 37° C.) is 12.5 µg/mL. For the same substance, in assay [3] (10 h cultivation at 37° C.), the “MIC (μg/mL) E. cloacae” value stood at 25 µg/mL. In [4] (10 h cultivation at 37° C.), the “MIC (μg/mL) M. catarrhalis” value was found to be 12.5 µg/mL. In addition, in assay [5] (setting [12]), the “MIC (μg/mL) E. coli BL21” value was 12.5 µg/mL. In addition, in assay [6] (10 h cultivation at 37° C.), the “MIC (μg/mL) C. diversus” value is 25 µg/mL. The “MIC (μg/mL) P. mirabilis” value in assay [7] (10 h cultivation at 37° C.) turned out to be 50 µg/mL. Besides, the “MIC (μg/mL) P. vulgaris” value in [8] (10 h cultivation at 37° C.) amounted to 12.5 µg/mL. Moreover, the “MIC (μg/mL) A. hydrophila” value in assay [9] (10 h cultivation at 37° C.) was found to be 12.5 µg/mL. Also, the “MIC (μg/mL) P. aeruginosa” value in [10] (10 h cultivation at 37° C.) stood at 25 µg/mL. This substance also displayed an MIC in [11] of 25 µg/mL.
Take “PRT1318 (DCTQCPGGFSNPCYGKGNCSDGIQGNGACLCFPDYKGIACH; listed as Homo sapiens)”: the “MIC against S. marcescens” value in [1] (Serratia marcescens, 96-well plate, 37° C., 10 h) stood at 25 µg/mL. In assay [2] (Klebsiella pneumonia, 96-well plate, 37° C., 10 h), the “MIC against K. pneumonia” value was 50 µg/mL. The “MIC against E. cloacae” value in [3] (Enterobacter cloacae, 96-well plate, 37° C., 10 h) was determined as 25 µg/mL. The “MIC against M. catarrhalis” value in [4] (Moraxella catarrhalis, 96-well plate, 37° C., 10 h) was determined as 12.5 µg/mL. Also, the “MIC against E. coli BL21” value in assay [5] (E. coli BL21, 96-well plate, 37° C., 10 h) amounted to 12.5 µg/mL. For the same substance, the “MIC against C. diversus” value in assay [6] (Citrobacter diversus, 96-well plate, 37° C., 10 h) was determined as 50 µg/mL. The “MIC against P. mirabilis” value in assay [7] (Proteus mirabilis, 96-well plate, 37° C., 10 h) was 25 µg/mL. The “MIC against P. vulgaris” value in assay [8] (Proteus vulgaris, 96-well plate, 37° C., 10 h) is 50 µg/mL. In addition, in [9] (Aeromonas hydrophila, 96-well plate, 37° C., 10 h), the “MIC against A. hydrophila” value stood at 12.5 µg/mL. The “MIC against P. aeruginosa” value in assay [10] (Pseudomonas aeruginosa, 96-well plate, 37° C., 10 h) turned out to be 25 µg/mL. The MIC in [11] worked out at 25 µg/mL.
For the substance “PRT1063 (ELSPCRINNGGCQDLCLLTHQGHVNCSCRGGRILQDDLTCR; listed as Homo sapiens)”, the “MIC S. marcescens” value in assay [1] (setting [13]) is 12.5 µg/mL. For the same substance, the “MIC K. pneumonia” value in assay [2] (setting [13]) was 25 µg/mL. In addition, the “MIC E. cloacae” value in [3] (setting [13]) was found to be 12.5 µg/mL. In assay [4] (setting [13]), the “MIC M. catarrhalis” value worked out at 50 µg/mL. The “MIC E. coli BL21” value in assay [5] (setting [13]) is 25 µg/mL. The “MIC C. diversus” value in [6] (setting [13]) was found to be 12.5 µg/mL. For the same substance, the “MIC P. mirabilis” value in assay [7] (setting [13]) turned out to be 25 µg/mL. In addition, in assay [8] (setting [13]), the “MIC P. vulgaris” value stood at 25 µg/mL. Further, the “MIC A. hydrophila” value in [9] (setting [13]) came out at 50 µg/mL. Besides, in assay [10] (setting [13]), the “MIC P. aeruginosa” value worked out at 50 µg/mL. The substance further returned an MIC in assay [11] of 12.5 µg/mL.
